Structures can show the parent of a compound that is named as a salt.
Test system: E. coli MG1655
Test: High-throughput screening of FDA-approved drug library for antibiotic adjuvants (growth inhibition, OD600)
Assay type: cell-based, Escherichia coli
Conditions: library drug alone, LB medium, 96-well, 8 h static culture at 37°C, relative to PMBN (positive) and DMSO (negative) controls, %, table head prints no unit
Protocol: To screen for antibiotic adjuvants against GNB, […] library drugs or polymyxin B nonapeptide (PMBN, positive control) or dimethyl sulfoxide (DMSO, negative control). After 8 h of static culture at 37°C, the optical density at 600 nm (OD600) was measured using a microplate reader. Percentage inhibition was calculated as (ODN – ODX)/(ODN – ODP) × 100%, where ODX is the OD600 value for a test treated with drug X, and ODP and ODN are the OD600 values for the positive and negative control, respectively.

With `COCC1=C(C(=O)O)N2C(=O)[C@@H](NC(=O)/C(=N\OC)c3csc(N)n3)[C@H]2SC1` [Cefpodoxime (free acid)] the “Growth inhibition, Compound” value was 108%.

In the case of `CCO/N=C(\C(=O)N[C@@H]1C(=O)N2C(C(=O)[O-])=C(Sc3nc(-c4cc[n+](C)cc4)cs3)CS[C@H]12)c1nsc(NP(=O)(O)O)n1` [Ceftaroline fosamil], the “Growth inhibition, Compound” value is reported as 93%.

`CC(C)(O/N=C(\C(=O)N[C@@H]1C(=O)N2C(C(=O)[O-])=C(C[n+]3ccccc3)CS[C@H]12)c1csc(N)n1)C(=O)O` [Ceftazidime] was tested, and the “Growth inhibition, Compound” value was 53%.

`CO/N=C(\C(=O)N[C@@H]1C(=O)N2C(C(=O)OCOC(=O)C(C)(C)C)=C(Cn3nnc(C)n3)CS[C@H]12)c1csc(N)n1` [Cefteram pivoxil] was tested, and the “Growth inhibition, Compound” value was 110%.

With `Nc1nc(/C(=C/CC(=O)O)C(=O)N[C@@H]2C(=O)N3C(C(=O)O)=CCS[C@H]23)cs1.O.O` [Ceftibuten dihydrate] the “Growth inhibition, Compound” value was 84%.

`CO/N=C(/C(=O)N[C@@H]1C(=O)N2C(C(=O)O)=C(CSC(=O)c3ccco3)CS[C@H]12)c1csc(N)n1.Cl` [Ceftiofur hydrochloride] was tested, and the “Growth inhibition, Compound” value was 84%.

With `CO/N=C(\C(=O)N[C@@H]1C(=O)N2C(C(=O)O)=CCS[C@H]12)c1csc(N)n1` [Ceftizoxime] the “Growth inhibition, Compound” value was 101%.

For `Cc1oc(=O)oc1COC(=O)N1CC[C@@H](N2CC/C(=C\C3=C(C(=O)O)N4C(=O)[C@@H](NC(=O)/C(=N/O)c5nsc(N)n5)[C@H]4SC3)C2=O)C1` [Ceftobiprole medocaril], the “Growth inhibition, Compound” value was 106%.

In the case of `Nc1nc(/C(=N/O)C(=O)N[C@@H]2C(=O)N3C(C(=O)O)=C(/C=C4\CCN([C@@H]5CCNC5)C4=O)CS[C@H]23)ns1` [Ceftobiprole], the “Growth inhibition, Compound” value is reported as 107%.

`CO/N=C(\C(=O)N[C@@H]1C(=O)N2C(C(=O)O)=C(CSc3nc(=O)c(=O)[nH]n3C)CS[C@H]12)c1csc(N)n1` [Ceftriaxone sodium] was tested, and the “Growth inhibition, Compound” value was 114%.

`CO/N=C(\C(=O)N[C@@H]1C(=O)N2C(C(=O)O)=C(COC(N)=O)CS[C@H]12)c1ccco1` [Cefuroxime sodium] was tested, and the “Growth inhibition, Compound” value was 95%.

With `CC(=O)OCC1=C(C(=O)O)N2C(=O)[C@@H](NC(=O)Cc3cccs3)[C@H]2SC1` [Cephalothin sodium] the “Growth inhibition, Compound” value was 79%.

For `CC(=O)OCC1=C(C(=O)O)N2C(=O)[C@@H](NC(=O)Cc3cccs3)[C@H]2SC1` [Cephalotin acid], the “Growth inhibition, Compound” value was 92%.

`CCCCCCCCCCCCCCCC[N+](C)(C)C` [Cetrimonium bromide] was tested, and the “Growth inhibition, Compound” value was 87%.

With `Cc1ccc2c(Cl)cc(Cl)c(O)c2n1` [Chloquinan] the “Growth inhibition, Compound” value was 119%.

In the case of `O=C(N[C@H](CO)[C@H](O)c1ccc([N+](=O)[O-])cc1)C(Cl)Cl` [Chloramphenicol], the “Growth inhibition, Compound” value is reported as 109%.

For `[H]/N=C(\N/C(=N/[H])NCCCCCCNC(=N)NC(=N)Nc1ccc(Cl)cc1)Nc1ccc(Cl)cc1` [Chlorhexidine Acetate], the “Growth inhibition, Compound” value was 103%.

For `[H]/N=C(\N/C(=N/[H])NCCCCCCNC(=N)NC(=N)Nc1ccc(Cl)cc1)Nc1ccc(Cl)cc1` [Chlorhexidine hydrochloride], the “Growth inhibition, Compound” value was 107%.

In the case of `[H]/N=C(\N/C(=N/[H])NCCCCCCNC(=N)NC(=N)Nc1ccc(Cl)cc1)Nc1ccc(Cl)cc1` [Chlorhexidine], the “Growth inhibition, Compound” value is reported as 101%.

`CN(C)[C@@H]1C(O)=C(C(N)=O)C(=O)[C@@]2(O)C(O)=C3C(=O)c4c(O)ccc(Cl)c4[C@@](C)(O)[C@H]3C[C@@H]12` [Chlortetracycline hydrochloride] was tested, and the “Growth inhibition, Compound” value was 111%.

For `Cc1cc(C2CCCCC2)n(O)c(=O)c1.NCCO` [Ciclopirox ethanolamine], the “Growth inhibition, Compound” value was 114%.

With `Cc1cc(C2CCCCC2)n(O)c(=O)c1` [Ciclopirox] the “Growth inhibition, Compound” value was 70%.

`CCn1nc(C(=O)O)c(=O)c2cc3c(cc21)OCO3` [Cinoxacin] was tested, and the “Growth inhibition, Compound” value was 88%.

For `CC[C@H]1OC(=O)[C@H](C)[C@@H](O[C@H]2C[C@@](C)(OC)[C@@H](O)[C@H](C)O2)[C@H](C)[C@@H](O[C@@H]2O[C@H](C)C[C@H](N(C)C)[C@H]2O)[C@](C)(OC)C[C@@H](C)C(=O)[C@H](C)[C@@H](O)[C@]1(C)O` [Clarithromycin], the “Growth inhibition, Compound” value was 50%.

`Oc1c(I)cc(Cl)c2cccnc12` [Clioquinol] was tested, and the “Growth inhibition, Compound” value was 94%.

With `CN1C[C@@H]2C[C@H]1CN2c1cc2c(cc1F)c(=O)c(C(=O)O)cn2C1CC1.CS(=O)(=O)O` [Danofloxacin mesylate] the “Growth inhibition, Compound” value was 100%.

With `CC[C@H]1OC(=O)[C@H](C)[C@@H](O[C@H]2C[C@@](C)(OC)[C@@H](O)[C@H](C)O2)[C@H](C)[C@@H](O[C@@H]2O[C@H](C)C[C@H](N(C)C)[C@H]2O)[C@](C)(O)C[C@@H](C)C(=O)[C@H](C)[C@H]2OC(=O)O[C@@]21C` [Davercin] the “Growth inhibition, Compound” value was 114%.

With `CNC[C@H](O)[C@@H](O)[C@H](O)[C@H](O)CO.Nc1nc(-n2cc(C(=O)O)c(=O)c3cc(F)c(N4CC(O)C4)c(Cl)c32)c(F)cc1F` [Delafloxacin meglumine] the “Growth inhibition, Compound” value was 103%.

With `Nc1nc(-n2cc(C(=O)O)c(=O)c3cc(F)c(N4CC(O)C4)c(Cl)c32)c(F)cc1F` [Delafloxacin] the “Growth inhibition, Compound” value was 105%.

For `CN(C)[C@@H]1C(O)=C(C(N)=O)C(=O)[C@@]2(O)C(O)=C3C(=O)c4c(O)ccc(Cl)c4[C@@H](O)[C@H]3C[C@@H]12` [Demeclocycline hydrochloride], the “Growth inhibition, Compound” value was 99%.

For `Oc1ccc(Cl)c2cccnc12` [Dermofongin], the “Growth inhibition, Compound” value was 85%.

In the case of `COc1ccc(Cc2cnc(N)nc2N)cc1OC` [Diaveridine], the “Growth inhibition, Compound” value is reported as 107%.

`Oc1ccc(Cl)cc1Cc1cc(Cl)ccc1O` [Dichlorophen] was tested, and the “Growth inhibition, Compound” value was 95%.

With `O=c1[nH]cnc2c1ncn2[C@H]1CC[C@@H](CO)O1` [Didanosine] the “Growth inhibition, Compound” value was 41%.

For `CN[C@@H]1[C@H](O[C@H]2[C@H](O[C@H]3[C@H](O)[C@@H](O)[C@H](NC(=N)N)[C@@H](O)[C@@H]3NC(=N)N)O[C@@H](C)[C@]2(O)CO)O[C@@H](CO)[C@H](O)[C@H]1O` [Dihydrostreptomycin sulfate], the “Growth inhibition, Compound” value was 106%.

In the case of `[O-][n+]1ccccc1SSc1cccc[n+]1[O-]` [Dipyrithione], the “Growth inhibition, Compound” value is reported as 104%.

With `CCN(CC)C(=S)SSC(=S)N(CC)CC` [Disulfiram] the “Growth inhibition, Compound” value was 78%.

For `C[C@@H](O)[C@H]1C(=O)N2C(C(=O)O)=C(S[C@@H]3CN[C@H](CNS(N)(=O)=O)C3)[C@H](C)[C@H]12.O` [Doripenem Hydrate], the “Growth inhibition, Compound” value was 77%.

With `C[C@@H](O)[C@H]1C(=O)N2C(C(=O)O)=C(S[C@@H]3CN[C@H](CNS(N)(=O)=O)C3)[C@H](C)[C@H]12` [Doripenem] the “Growth inhibition, Compound” value was 95%.

For `CCO.C[C@H]1c2cccc(O)c2C(O)=C2C(=O)[C@]3(O)C(O)=C(C(N)=O)C(=O)[C@@H](N(C)C)[C@@H]3[C@@H](O)[C@@H]21.C[C@H]1c2cccc(O)c2C(O)=C2C(=O)[C@]3(O)C(O)=C(C(N)=O)C(=O)[C@@H](N(C)C)[C@@H]3[C@@H](O)[C@@H]21.Cl.Cl.O` [Doxycycline hyclate], the “Growth inhibition, Compound” value was 112%.

With `C[C@H]1c2cccc(O)c2C(=O)C2=C(O)[C@]3(O)C(=O)C(C(N)=O)=C(O)[C@@H](N(C)C)[C@@H]3[C@@H](O)[C@@H]21` [Doxycycline hydrochloride] the “Growth inhibition, Compound” value was 114%.

With `C[C@H]1c2cccc(O)c2C(=O)C2=C(O)[C@]3(O)C(=O)C(C(N)=O)=C(O)[C@@H](N(C)C)[C@@H]3[C@@H](O)[C@@H]21` [Doxycycline] the “Growth inhibition, Compound” value was 118%.
